Experimental data taken from the NIST ThermoML archive (doi:10.1016/j.jct.2019.06.029).

Assay: wn = mass fraction of the nth substance listed
Conditions: 100 kPa, Liquid; for viscosity: Falling or rolling sphere viscometry; for speed of sound: Frequency=3 MHz, Single path-length method; for mass density: Vibrating tube method

CCCC[n+]1ccc(C)cc1.[Br-] [1-butyl-4-methylpyridinium bromide] + O
Conditions | mass density, w1 = 0.01 [kg/m3] | mass density, w1 = 0.015 [kg/m3] | mass density, w1 = 0.02 [kg/m3] | speed of sound, w1 = 0.01 [m/s] | speed of sound, w1 = 0.015 [m/s] | speed of sound, w1 = 0.02 [m/s] | viscosity, w1 = 0.01 [mPa·s] | viscosity, w1 = 0.015 [mPa·s] | viscosity, w1 = 0.02 [mPa·s]
288.15 K | 1001.16 | 1002.26 | 1003.42 | 1472.7 | 1475.5 | 1478 | 1.165 | 1.176 | 1.195
293.15 K | 1000.23 | 1001.31 | 1002.47 | 1488.2 | 1490.8 | 1493.3 | 1.024 | 1.037 | 1.044
298.15 K | 999.051 | 1000.13 | 1001.26 | 1501.9 | 1504.1 | 1506.5 | 0.907 | 0.919 | 0.926
303.15 K | 997.647 | 998.68 | 999.765 | 1513.7 | 1515.7 | 1517 | 0.813 | 0.824 | 0.833
308.15 K | 996.019 | 996.958 | 998.102 | 1523.9 | 1525.8 | 1527.7 | 0.734 | 0.745 | 0.75

O [water] + CCCC[n+]1ccc(C)cc1.[Br-]
w2 = 0
Conditions | viscosity [mPa·s]
288.15 K | 1.136
293.15 K | 1.001
298.15 K | 0.89
303.15 K | 0.797
308.15 K | 0.718

CCCCCC[n+]1ccc(C)cc1.[Br-] [1-hexyl-4-methylpyridinium bromide] + O
Conditions | mass density, w1 = 0.01 [kg/m3] | mass density, w1 = 0.015 [kg/m3] | mass density, w1 = 0.02 [kg/m3] | speed of sound, w1 = 0.01 [m/s] | speed of sound, w1 = 0.015 [m/s] | speed of sound, w1 = 0.02 [m/s] | viscosity, w1 = 0.01 [mPa·s] | viscosity, w1 = 0.015 [mPa·s] | viscosity, w1 = 0.02 [mPa·s]
288.15 K | 1000.9 | 1001.79 | 1002.56 | 1473.1 | 1476.5 | 1479.6 | 1.172 | 1.183 | 1.195
293.15 K | 999.956 | 1000.82 | 1001.8 | 1488.7 | 1491.6 | 1493.8 | 1.028 | 1.039 | 1.05
298.15 K | 998.796 | 999.636 | 1000.38 | 1502.2 | 1504.9 | 1507.5 | 0.913 | 0.924 | 0.934
303.15 K | 997.389 | 998.196 | 998.926 | 1514 | 1516.4 | 1518.9 | 0.817 | 0.824 | 0.834
308.15 K | 995.718 | 996.546 | 997.238 | 1524 | 1526.2 | 1528.6 | 0.738 | 0.746 | 0.753

CCCCCCCC[n+]1ccc(C)cc1.[Br-] [1-octyl-4-methylpyridinium bromide] + O
Conditions | mass density, w1 = 0.01 [kg/m3] | mass density, w1 = 0.015 [kg/m3] | mass density, w1 = 0.02 [kg/m3] | speed of sound, w1 = 0.01 [m/s] | speed of sound, w1 = 0.015 [m/s] | speed of sound, w1 = 0.02 [m/s] | viscosity, w1 = 0.01 [mPa·s] | viscosity, w1 = 0.015 [mPa·s] | viscosity, w1 = 0.02 [mPa·s]
288.15 K | 1000.54 | 1001.29 | 1002.09 | 1473.8 | 1477 | 1480.5 | 1.179 | 1.196 | 1.217
293.15 K | 999.566 | 1000.32 | 1001.1 | 1489.1 | 1492.2 | 1495.3 | 1.031 | 1.046 | 1.063
298.15 K | 998.379 | 999.123 | 999.874 | 1502.6 | 1505.3 | 1508.2 | 0.915 | 0.929 | 0.941
303.15 K | 996.945 | 997.706 | 998.407 | 1514.5 | 1516.7 | 1519.5 | 0.817 | 0.833 | 0.844
308.15 K | 995.3 | 996.048 | 996.742 | 1524.5 | 1526.4 | 1528.8 | 0.737 | 0.749 | 0.76

O [water] + CCCCCC[n+]1ccc(C)cc1.[Br-]
w2 = 0
Conditions | viscosity [mPa·s]
288.15 K | 1.136
293.15 K | 1.001
298.15 K | 0.89
303.15 K | 0.797
308.15 K | 0.718

O [water] + CCCCCCCC[n+]1ccc(C)cc1.[Br-]
w2 = 0
Conditions | viscosity [mPa·s]
288.15 K | 1.136
293.15 K | 1.001
298.15 K | 0.89
303.15 K | 0.797
308.15 K | 0.718
